Test results: paper PMC12040169 (PLOS Biology, 2025)

Experiments:
in vitro = experiment: in vitro; parameters: Viability of infected HeLa host cells, resazurin conversion, bulk resorufin fluorescence relative to DMSO; conditions: human, hela cells; bulk resorufin, mean of 2
[1] = tested on: T1, CTL2-GFP (C. trachomatis L2/434/Bu, GFP-expressing); experiment: microbe, parasite or virus in culture; parameters: Intracellular C. trachomatis growth in HeLa cells, bulk GFP fluorescence relative to DMSO; conditions: Chlamydia trachomatis, HeLa, 28.5 h; bulk GFP, mean of 2; read-out: % of control remaining
T1 construct: L2/434/Bu, GFP-expressing
Experimental: MICs were calculated as described above.

[2] = tested on: T2, C. trachomatis L2/434/Bu expressing GFP (CTL2-GFP); experiment: microbe, parasite or virus in culture; parameters: C. trachomatis total inclusion area by high-content imaging, normalised to DMSO; conditions: Chlamydia trachomatis, HeLa, 28.5 h; total inclusion area; read-out: % of control remaining
T2 construct: L2/434/Bu GFP intracellular growth in HeLa cells
Description: We screened a library of 36,785 small molecules displaying drug-like properties and covering a wide chemical space (Fig 1A and S2A Data). In this process, we also complemented the assay described above with an imaging-based readout (Fig 1B). After measurements of bulk GFP and resorufin fluorescence, cells were fixed, stained with the DNA dye Hoechst, and imaged at a high-content imaging platform to detect chlamydial inclusions (GFP) and host cell nuclei (Hoechst). The total area and number of inclusions in individual wells and the number of nuclei then served as additional proxies for chlamydial growth and host cell viability. […] MICs were calculated as described above.

Compound	viability at 28.5 h, 1 µM (in vitro) [%]	viability at 28.5 h, 5 µM (in vitro) [%]	viability at 28.5 h, 10 µM (in vitro) [%]	activity at 1 µM [1] [%]	activity at 5 µM [1] [%]	activity at 10 µM [1] [%]	activity at 1 µM [2] [%]	activity at 5 µM [2] [%]	activity at 10 µM [2] [%]
c1ccc(-c2nc3cc4ccccc4cc3[nH]2)nc1 [CBK000130]	99.1	95.7	90.5	133	40.2	18.3	98.2	31.5	14.1
O=C(CSCc1ccc(Cl)cc1)Nc1ccc(S(=O)(=O)N2CCCCCC2)cc1 [CBK267017]	101	104	104	99.4	85	60.7	92.3	104	54.9
COc1ccc(Br)cc1C1CC(=O)Nc2c(-c3cccc(F)c3)csc21 (stereo not drawn) [CBK294442]	96.8	96.5	95.7	132	65.3	59.3	118	29.4	66.4
COc1ccc(C(=O)NNC(=O)/C=C/c2ccc(C(C)C)cc2)cc1 [CBK261697]	95	95.5	94.3	111	98	43.2	121	97.3	48.1
OCCNc1nc(Nc2ccc(Br)cc2)nc2ccccc12 [CBK266724C]	122	116	121	69.3	0.15	0	59.5	2.92	0.726
N#CC(CCCN1CCN(c2ccccc2)CC1)(c1ccccc1)c1ccccc1 [CBK002243C]	99.6	105	118	106	74	41.5	42.5	23.5	17.3
O=C(NCC1CC1)c1ccc(N2CCN(C(=O)c3ccccc3C(F)(F)F)CC2)nn1 [CBK153220]	104	93	95.9	149	123	138	146	79.1	94.4
COc1cc(C=C2SC(NCC(=O)O)=NC2=O)ccc1OCc1ccc(Cl)cc1Cl [CBK297555]	88.5	92.1	88.9	135	155	200	110	86.9	44
C[C@H](NC(=O)Cc1ccc(-c2ccccc2)cc1)c1nc2ccccc2[nH]1 [CBK296998]	89.7	97.4	100	153	142	185	110	35.8	30.7
COCCNc1nc2c(c(N3CCCCCC3)n1)CCNCC2 [CBK306724]	98	97.9	92.9	76	7.81	4.81	79.4	0.64	0.424
CN(C)[C@H]1CCC[C@@H]1C(=O)Nc1ccc(Cl)c(Cl)c1 [CBK003406]	105	109	107	90.9	67.2	13	112	76.4	20.8
O=C(N/N=C\c1ccc([N+](=O)[O-])o1)c1nc(-c2ccccc2)cc(-c2ccccc2)n1 [CBK261958]	90	91.8	87.8	6.03	1.53	7.08	4.65	0.0567	0
COc1cc(NS(=O)(=O)c2ccc(Nc3nc(-c4sc(N)nc4C)cs3)cc2)nc(OC)n1 [CBK262796]	93.6	92.2	88	106	58.4	32.6	110	55.3	28.8
